Experimental data published in US20150141460A1, “Anti-inflammatory Compositions” (Cambridge Enterprise Limited, priority 2007, published 2015).
Entries after “also recorded” stand apart in the source; their conditions may differ.

How the values were obtained:
[1] = Pharmacokinetics following a single dose in rat (1 mg/kg iv, 3 mg/kg oral), LC-MS/MS, one-compartment model; type: in vivo; details: for bioavailability: 3 mg/kg oral in 1% CMC vs 1 mg/kg iv, one-compartment model, read-out: F (%) oral bioavailability; for Vd: read-out: Vss (L/kg) volume of distribution; for half-life: intravenous dosing 1 mg/kg, read-out: t1/2 (mins) dominant plasma half-life
Procedure: Compounds were administered as a single dose (either 1 mg/kg bodyweight in 5% DMSO via the intravenous route or 3 mg/kg in 1% carboxymethylcellulose via the oral route) to three adult rats (using different rats for each compound and each route of administration).
Blood was then sampled at various time points (including just prior to dose administration) out to 24 hrs post dose, and the level of the various compounds was assessed using a validated LC-MS/MS assay. Briefly, 3-5 μl of the deproteinised sample was applied to a Waters Atlantis (C18 20×2.1 mm, 3 μm bead size) reverse phase chromatography column equilibrated in 0.1% formic acid in 95:5 water:actetonitrile. Over 3.5 minutes bound material was gradient eluted reaching 0.1% formic acid in 5:95 water:acetonitrile, followed by a step gradient back to 0.1% formic acid in 95:5 water:acetonitrile. The column eluent was then directed to an Applied Biosystems API 4000/3200 QTrap MS/MS mass spectrometer, with a TurboIonspray™ ion source operating in positive ion mode. The interface temperature was set at 650° C., with a 40 ms dwell time for each MRM transition, monitoring the following ions:
The internal standard in each determination was the related compound (S)-3-(2′,2′-dimethyl-propanoylamino)-caprolactam, which was spiked into the sample prior to deproteinization. The lower limit of quantitation (LLOQ) for this assay was 2.4 ng/ml for each compound except (I′), where it was 38.1 ng/ml.
Following LC-MS/MS analysis of each collected sample, the pharmacokinetic disposition of the compound was modelled using Kinetica software, a well known software package for such applications.
Compounds (VI) and (VII) were subject to pharmacokinetic analysis in rat using exactly the same protocols previous applied for compounds (I) through (V) in example 1.
We therefore subjected (VIII) to pharmacokinetic analysis in rat using exactly the same protocols previous applied for compounds (I′) through (VII) in examples 1 and 7.
The isolated (R)-enantiomer of (I) was therefore synthesised (exactly as described herein for the isolated (S)-enantiomer, but replacing the (S)-ornithine starting material with commercially available (R)-ornithine of high stereochemical purity), and the PK properties of this agent, in rat, was determined using the identical methodology described above (see Examples 1, 7 and 8).

[2] = In vitro stability (hydrolysis of C-Cl bond) in physiological saline, LC/MS; type: physicochemical; details: after 24 hours at 37° C.
Procedure: (§1) An obvious concern related to this molecule was the stability of the C—Cl bond. We therefore examined the stability of (VIII) in vitro, both in physiological saline and in a rat liver microsome preparation. Encouragingly, less than 2% of (VIII) had undergone hydrolysis (determined by LC/MS, with dual ion detection of the hydrolysis product (V) and the parent compound (VIII)) even after 24 hours at 37° C. […] As a result, we conclude that compound (VIII) has similar in vitro stability and intrinsic clearance to (I′).

[3] = Stability in rat liver microsome preparation; type: in vitro ADME; details: 1 μM, 1 hour at 37° C.
Procedure: as §1

[4] = Identification of the primary metabolites in pooled rat urine by LC-MS-MS; type: in vivo; details: single oral dose 3 mg/kg in 1% CMC, pooled urine over 24 hrs, qualitative, 3 mg/kg
Procedure: Urine was collected from rats exposed to a single oral dose (3 mg/kg in 1% CMC) of each compound over a 24 hour period in metabolic cages. The pooled urine sample was then subjected to full scan mass spectral analysis, using the same LC-MS conditions as described in example 1 above. Further MS-MS analysis of the product ions was then performed, and likely fragmentations/re-arrangements assigned from the publicly available Metabolite ID database.
For the major metabolites, the assigned structures were confirmed by synthesis of authentic samples, using methods well known in the art, which were subject to LC-MS-MS analysis under the same conditions as the urine samples.
Note that metabolite ID studies provide only qualitative estimates of the relative amounts of the different metabolites present, and separately validated assays with appropriate internal standards would be required to quantitate each metabolite species.

NK2 receptor = biological target: T1, NK2 receptor (Homo sapiens, UniProt P21452); assay: CEREP panel binding, NK2 receptor; details: estimated from single concentration 10 μM; read-out: estimated ED50 for interaction with the NK2 receptor
T1 construct: purchased CEREP (screening panel)
T1 sequence (P21452 1-398): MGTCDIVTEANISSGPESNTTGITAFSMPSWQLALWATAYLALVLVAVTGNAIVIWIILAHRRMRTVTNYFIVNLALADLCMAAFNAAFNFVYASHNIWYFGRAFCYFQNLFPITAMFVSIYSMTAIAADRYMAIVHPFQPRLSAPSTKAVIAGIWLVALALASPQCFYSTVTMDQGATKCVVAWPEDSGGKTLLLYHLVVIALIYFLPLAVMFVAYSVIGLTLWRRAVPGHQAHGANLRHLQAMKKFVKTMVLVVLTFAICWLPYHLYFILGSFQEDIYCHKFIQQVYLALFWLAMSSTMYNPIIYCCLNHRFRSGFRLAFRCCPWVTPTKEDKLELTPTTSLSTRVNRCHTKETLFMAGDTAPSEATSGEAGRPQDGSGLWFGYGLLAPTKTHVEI
Procedure: FIGS. 5A-5F show the profile of cross-reactivity for each of the five compounds (I′) to (V) (FIG. 5A: (II); FIG. 5B: (III); FIG. 5C: (V); FIG. 5D: (I′) and FIG. 5E: (IV)) against a panel of 75 different receptors that compose the CEREP panel (see text). The compounds were tested at a single concentration (10 μM), and the inhibition of binding (Y-axis of each histogram) for a known ligand to each of the 75 receptors is reported (−100% therefore represents a 2-fold increase in binding of the specific ligand in the presence of the test compound). All reactions were performed in duplicate, and the bars represent the mean (no estimate of the replicate error is shown to simplify the graphs). Only a 50% or greater inhibition (or stimulation) of binding (representing an ED50 below 10 μM for the interaction of the test compound with the particular receptor) was considered statistically and biologically significant in this screening assay. For the five compounds tested here, only one interaction (that of compound (II) with the NK2 receptor, marked by the arrowhead in FIG. 5A) was considered potentially significant, although even this interaction was weak (estimated ED50 5-10 μM).
Binding to non-target receptors was assessed using similar protocols, exploiting specific radioligands for each receptor which are well known in the art. […]

[5] = tested on: S. Typhinurium (TA102, TA98 and TA100); assay: AMES test, revertant colony formation; type: cell-based; details: at 5 mg/ml
Procedure: The five compounds were subjected to a standard AMES test to assess likely genotoxicity. Three His-auxotroph strains of S. Typhinurium (TA102, TA98 and TA100) were treated with each of the compounds at 5 concentrations (up to 5 mg/ml) in the presence and absence of S9 rat liver microsomal metabolising system. The number of revertant colonies was then determined by plating on trace-His minimal media.

[6] = plasma, averaged across three rats
[7] = plasma, iv, 1 mg/kg, averaged across three rats

| clearance, fold higher than (I′) [1] | level of analyte in plasma following oral dosing ([1]; all time-points, limit of quantitation ˜2 ng/ml) | AUC(0-t) ([1]; blood, single oral dose 3 mg/kg in 1% CMC, Tables 7-9, read-out: Exposure (min · ng/ml), oral exposure AUC 0-t (converted)) [ng·h/mL] | clearance [1, 7] [mL/min/kg] | hydrolysis to (V) [2] | degradation compared to a no NADPH blank run [3] | SMILES | oral bioavailability [1] | bioavailability [1, 6] [%] | Vd [1, 7] [L/kg] | half-life [1, 7] [min] | major metabolites / route of metabolism detected in urine [4] | IC50 (NK2 receptor) [µM] | effect on bacterial lawn growth [5] |
| --- | --- | --- | --- | --- | --- | --- | --- | --- | --- | --- | --- | --- | --- |
| more than 20 fold | below the limit of quantitation | < 1.67 | 62.8 | less than 2% | less than 10% | O=C1NCCCC[C@@H]1NC(=O)C12CC3CC(CC(Cl)(C3)C1)C2 [(VIII)] | no detectable oral bioavailability whatsoever | < 1 | 0.7 | 15 |  |  |  |
|  |  |  |  |  |  | O=C1NCCCC[C@@H]1NC(=O)C12CC3CC(CC(C3)C1)C2 [Compound (II), 3-(adamantane-1-carbonylamino)-caprolactam] |  | < 1 | 0.8 | 16 | cytochrome P450-mediated hydroxylation; also recorded: rapidly converted to (V) in vivo | 5 to 10 | inhibition of bacterial lawn growth |
